Test: Clobetasol plasma levels
Assay type: in vivo, human
Conditions: 45 subject plasma samples; after topical scalp treatment
Method: This study was conducted as a single center, randomized, investigator-masked and competitor comparison of 4 parallel groups involving Psoriasis and Scalp seborrheic dermatitis subjects. The aim of the trial was to evaluate the opthalmological irritation potential and the potential to suppress the HPA axis of Clobetasol Propionate Shampoo, 0.05%. During 4 weeks, psoriasis subjects had to treat their scalp once a day with Clobetasol Shampoo, 0.05% or with Dermoval/Temovate gel. Scalp seborrheic dermatitis subjects had to treat their scalp twice a week with Clobetasol Shampoo, 0.05% or on a day with Dermoval/Temovate gel.
Each subjects was submitted at each visit (each week during 4 weeks) to the following tests, ocular examination, HPA-axis function, local and general safety. First, opthalmological examination, measurement of intraocular pressure, detection of ocular subjective symptoms such as burning sensation, measurement of far and near visual acuity. Second, they were sampled for serum cortisol levels and were submitted to the Cosyntropin (Synacthene) stimulation assay. Cutaneous safety (skin atrophy using B-Scan ultra-sound and telangiectasis) and adverse events were also recorded. Systemic safety was also assessed by routine laboratory test and detection of Clobetasol Plasma levels, cutaneous safety, and DSS at the end of the study.

## CCC(=O)O[C@]1(C(=O)CCl)[C@@H](C)C[C@H]2[C@@H]3CCC4=CC(=O)C=C[C@]4(C)[C@@]3(F)[C@@H](O)C[C@@]21C [Clobatasol 17-propionate, clobetasol 17-propionate]
  amounts found in subject plasma samples: No detectable amounts

From US20080275014A1, “Clobetasol Propionate Shampoos for the Treatment of Seborrheic Dermatitis of the Scalp” (Galderma S.A., priority 2004, published 2008)
